Laboratory results taken from patent US20260055117A1, “SUBSTITUTED PYRIDONE GPR84 ANTAGONISTS AND USES THEREOF” (Liminal BioSciences Limited, priority 2022, published 2026).

Biological target: T1, human GPR84 receptor (Homo sapiens, UniProt Q9NQS5)
T1 construct: host or cells: HEK293, transiently transfected
Experiment: Gαi biosensor BRET assay (GPR84 antagonism vs agonist ZQ-16)
Assay type: cell-based
Settings: HEK293 cells, 200 nmol/L agonist ZQ-16; for IC50: Gαi biosensor BRET assay; for inhibition at 2 µM: tested at 2 μM (concentration code A); for inhibition at 10 µM: tested at 10 μM (concentration code D)
How it was run: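 HEK293 cells transiently expressing GPR84, Gαi2-Rluc8, GFP10-Gγ2 and Gβ1 were pre-incubated with compounds 5 min at 37 °C in Tyrode's buffer pH 7.5, then stimulated with 200 nmol/L ZQ-16 for 5 min at room temperature. BRET2 (acceptor/donor ratio) read after 5 μmol/L coelenterazine 400A, background- and vehicle-corrected.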

T1 sequence (Q9NQS5 whole entry): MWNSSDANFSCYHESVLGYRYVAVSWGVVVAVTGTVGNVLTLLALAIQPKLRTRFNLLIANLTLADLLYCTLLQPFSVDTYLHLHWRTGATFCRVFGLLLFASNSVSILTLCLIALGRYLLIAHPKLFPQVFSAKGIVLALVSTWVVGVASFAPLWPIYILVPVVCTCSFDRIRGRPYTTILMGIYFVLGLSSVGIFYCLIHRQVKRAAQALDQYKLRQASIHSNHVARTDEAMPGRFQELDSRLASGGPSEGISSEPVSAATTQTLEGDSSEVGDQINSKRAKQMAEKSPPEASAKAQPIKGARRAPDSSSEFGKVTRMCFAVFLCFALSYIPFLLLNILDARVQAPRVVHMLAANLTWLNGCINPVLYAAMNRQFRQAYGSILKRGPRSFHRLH

Row | IC50 | inhibition at 2 µM | inhibition at 10 µM | inhibition at 5.4 µM (tested at 5.4 μM (concentration code C)) | Structure (SMILES)
1 | ≤ 300 nM | > 75% | – | – | CCN(CC)C(=O)COc1cc(C)n([C@H](C)c2ccc(C#CC3CC3)cc2)c(=O)c1 [Compound I-268]
2 | ≤ 300 nM | > 75% | – | – | Cc1cc(OCC(=O)C(C)C)cc(=O)n1[C@H](C)c1ccc(C#CC2CC2)cc1 [Compound I-270]
3 | – | – | 25 to 50% | – | CC(=O)C(C)(C)Oc1cc(C)n([C@H](C)c2ccc(C#CC3CC3)cc2)c(=O)c1 [Compound I-271]
4 | 300 to 1000 nM | > 75% | – | – | Cc1cc(OCC(=O)C(C)(C)C)cc(=O)n1[C@H](C)c1ccc(C#CC2CC2)cc1 [Compound I-272]
5 | – | – | > 75% | – | Cc1cc(OCC(=O)C2CCCC2)cc(=O)n1[C@H](C)c1ccc(C#CC2CC2)cc1 [Compound I-273]
6 | – | – | > 75% | – | Cc1cc(OCC(O)C(C)C)cc(=O)n1[C@H](C)c1ccc(C#CC2CC2)cc1 (some centres unmarked) [Compound I-274]
7 | – | – | > 75% | – | COC(COc1cc(C)n([C@H](C)c2ccc(C#CC3CC3)cc2)c(=O)c1)C(C)C (some centres unmarked) [Compound I-275]
8 | 300 to 1000 nM | – | > 75% | – | Cc1cc(OCC(O)C(C)(C)C)cc(=O)n1[C@H](C)c1ccc(C#CC2CC2)cc1 (some centres unmarked) [Compound I-276]
9 | > 3000 nM | – | > 75% | – | COC(COc1cc(C)n([C@H](C)c2ccc(C#CC3CC3)cc2)c(=O)c1)C(C)(C)C (some centres unmarked) [Compound I-277]
10 | ≤ 300 nM | > 75% | – | – | Cc1cc(OCC(=O)N(C2CC2)C2CC2)cc(=O)n1[C@H](C)c1ccc(C#CC2CC2)cc1 [Compound I-278]
11 | – | > 75% | – | – | Cc1cc(OCC(=S)N(C)C)cc(=O)n1[C@H](C)c1ccc(C#CC2CC2)cc1 [Compound I-279]
12 | – | – | 50 to 75% | – | Cc1cc(OCCN(C)C)cc(=O)n1[C@H](C)c1ccc(C#CC2CC2)cc1 [Compound I-280]
13 | – | – | 25 to 50% | – | Cc1cc(OCCN2CCCC2)cc(=O)n1[C@H](C)c1ccc(C#CC2CC2)cc1 [Compound I-281]
14 | ≤ 300 nM | > 75% | – | – | Cc1cc(OCC(=O)N2CC3(CCC3)C2)cc(=O)n1[C@H](C)c1ccc(C#CC2CC2)cc1 [Compound I-282]
15 | ≤ 300 nM | – | > 75% | – | Cc1cc(OCC(=O)N2CC3(COC3)C2)cc(=O)n1[C@H](C)c1ccc(C#CC2CC2)cc1 [Compound I-283]
16 | ≤ 300 nM | > 75% | – | – | Cc1cc(OCC(=O)N2CC3CC3C2)cc(=O)n1[C@H](C)c1ccc(C#CC2CC2)cc1 (some centres unmarked) [Compound I-284]
17 | 300 to 1000 nM | – | > 75% | – | Cc1cc(OCC(=O)N2CC3C(C2)C3(C)C)cc(=O)n1[C@H](C)c1ccc(C#CC2CC2)cc1 (some centres unmarked) [Compound I-285]
18 | – | – | 50 to 75% | – | Cc1cc(OCC(=O)N(C)C)c(O)c(=O)n1[C@H](C)c1ccc(C#CC2CC2)cc1 [Compound I-286]
19 | – | – | > 75% | – | C[C@H](c1ccc(C#CC2CC2)cc1)n1c(CO)cc(OCC(=O)N(C)C)cc1=O [Compound I-287]
20 | 300 to 1000 nM | > 75% | – | – | Cc1cc(OCC(=O)N2CC(F)C2)cc(=O)n1[C@H](C)c1ccc(C#CC2CC2)cc1 [Compound I-288]
21 | ≤ 300 nM | – | > 75% | – | Cc1cc(OCC(=O)N2CC3(CCO3)C2)cc(=O)n1[C@H](C)c1ccc(C#CC2CC2)cc1 [Compound I-289]
22 | ≤ 300 nM | > 75% | – | – | Cc1cc(OCC(=O)N2CC(C)C2)cc(=O)n1[C@H](C)c1ccc(C#CC2CC2)cc1 [Compound I-290]
23 | ≤ 300 nM | > 75% | – | – | Cc1cc(OCC(=O)N2CC(CO)C2)cc(=O)n1[C@H](C)c1ccc(C#CC2CC2)cc1 [Compound I-291]

Row | IC50 | inhibition at 2 µM | inhibition at 10 µM | inhibition at 5.4 µM (tested at 5.4 μM (concentration code C)) | Structure (SMILES)
24 | ≤ 300 nM | > 75% | – | – | COCC1CN(C(=O)COc2cc(C)n([C@H](C)c3ccc(C#CC4CC4)cc3)c(=O)c2)C1 [Compound I-292]
25 | ≤ 300 nM | > 75% | – | – | Cc1cc(OCC(=O)N2CC(O)C2)cc(=O)n1[C@H](C)c1ccc(C#CC2CC2)cc1 [Compound I-293]
26 | ≤ 300 nM | > 75% | – | – | COC1CN(C(=O)COc2cc(C)n([C@H](C)c3ccc(C#CC4CC4)cc3)c(=O)c2)C1 [Compound I-294]
27 | – | – | – | > 75% | C#Cc1ccc([C@@H](C)n2c(C)cc(OCC(=O)N(C)C)cc2=O)cc1 [Compound I-295]
28 | – | – | 50 to 75% | – | Cc1nc(OCC(=O)N2CCC[C@@H]2C(=O)O)cc(=O)n1[C@H](C)c1ccc(C#CC2CC2)cc1 [Compound I-296]
29 | – | – | > 75% | – | Cc1nc(OCC(=O)N2CCC[C@H]2C(=O)O)cc(=O)n1[C@H](C)c1ccc(C#CC2CC2)cc1 [Compound I-297]
30 | – | – | > 75% | – | Cc1nc(OCC(=O)N2CC[C@@H](C(=O)O)C2)cc(=O)n1[C@H](C)c1ccc(C#CC2CC2)cc1 [Compound I-298]
31 | 1000 to 3000 nM | > 75% | – | – | Cc1nc(OCC(=O)N2CC[C@H](C(=O)O)C2)cc(=O)n1[C@H](C)c1ccc(C#CC2CC2)cc1 [Compound I-299]
32 | 1000 to 3000 nM | – | > 75% | – | Cc1cc(OCC(=O)N2CC[C@@H]2C(=O)O)cc(=O)n1[C@H](C)c1ccc(C#CC2CC2)cc1 [Compound I-300]
33 | 1000 to 3000 nM | – | > 75% | – | Cc1cc(OCC(=O)N2CC[C@H]2C(=O)O)cc(=O)n1[C@H](C)c1ccc(C#CC2CC2)cc1 [Compound I-301]
34 | ≤ 300 nM | > 75% | – | – | Cc1cc(OCC(=O)N2CC(C(=O)O)C2)cc(=O)n1[C@H](C)c1ccc(C#CC2CC2)cc1 [Compound I-302]
35 | – | – | < 25% | – | Cc1cc(OCC(=O)O)cc(=O)n1[C@@H](C)c1ccc(C#CC2CC2)cc1 [Compound I-303]
36 | ≤ 300 nM | – | > 75% | – | Cc1cc(OCC(=O)N2CC[C@H](C(=O)O)[C@H]2C)cc(=O)n1[C@H](C)c1ccc(C#CC2CC2)cc1 [Compound I-304]
37 | ≤ 300 nM | > 75% | – | – | Cc1cc(OCC(=O)N2CCC[C@H]2C#N)cc(=O)n1[C@H](C)c1ccc(C#CC2CC2)cc1 [Compound I-305]
38 | 300 to 1000 nM | > 75% | – | – | Cc1cc(OCC(=O)N2CCC[C@@H]2C#N)cc(=O)n1[C@H](C)c1ccc(C#CC2CC2)cc1 [Compound I-306]
39 | ≤ 300 nM | > 75% | – | – | Cc1cc(OCC(=O)N2CCC[C@@H]2C2CC2)cc(=O)n1[C@H](C)c1ccc(C#CC2CC2)cc1 [Compound I-307]
40 | 300 to 1000 nM | > 75% | – | – | Cc1cc(OCC(=O)N2CCC[C@H]2C2CC2)cc(=O)n1[C@H](C)c1ccc(C#CC2CC2)cc1 [Compound I-308]
41 | ≤ 300 nM | > 75% | – | – | Cc1cc(OCC(=O)N2CC[C@@H](C#N)C2)cc(=O)n1[C@H](C)c1ccc(C#CC2CC2)cc1 [Compound I-309]
42 | ≤ 300 nM | > 75% | – | – | Cc1cc(OCC(=O)N2CC[C@H](C#N)C2)cc(=O)n1[C@H](C)c1ccc(C#CC2CC2)cc1 [Compound I-310]
43 | – | > 75% | – | – | Cc1cc(OCC(=O)N2CC[C@@H](C3CC3)C2)cc(=O)n1[C@H](C)c1ccc(C#CC2CC2)cc1 [Compound I-311]
44 | – | > 75% | – | – | Cc1cc(OCC(=O)N2CC[C@H](C3CC3)C2)cc(=O)n1[C@H](C)c1ccc(C#CC2CC2)cc1 [Compound I-312]
45 | ≤ 300 nM | > 75% | – | – | Cc1cc(OCC(=O)N2CC(C)(CO)C2)cc(=O)n1[C@H](C)c1ccc(C#CC2CC2)cc1 [Compound I-313]
